Experimental data taken from ChEMBL document CHEMBL1141247, “Hydroxyalkenylresorcinols from Stylogyne turbacensis” (J Nat Prod, 2007).
pIC50: −log10 of the molar value.

What was measured:
Trypanosoma cruzi = test: Antitrypanosomal activity against Trypanosoma cruzi; type: functional, organism-based
Leishmania donovani = test: Antileishmanial activity against Leishmania donovani; type: functional, organism-based
MCF7 = test: Cytotoxicity against human MCF7 cells; type: functional, cell-based
NCI-H460 [1] = test: Cytotoxicity against human NCI-H460; type: functional, cell-based
Vero = test: Cytotoxicity against […] Vero cells by MTT assay; type: cell-based, Homo sapiens; conditions: Chlorocebus sabaeus
NCI-H460 [2] = test: Cytotoxicity against human NCI-H460 at 20 ug/ml; type: functional

Compound `CCCCC/C=C\C/C=C\CCCCCCCc1cc(O)cc(O)c1` has a pIC50 (Trypanosoma cruzi) of 4.52, a pIC50 (Leishmania donovani) of 6.22 and a pIC50 (MCF7) of 5.06. It also gave a pIC50 (NCI-H460 [1]) of 5.06 and a pIC50 (Vero) of 3.83.
In the case of `CCCCCC[C@H](O)C/C=C\CCCCCCCc1cc(O)cc(O)c1`, the pIC50 (Trypanosoma cruzi) was 3.86, the pIC50 (Leishmania donovani) was 5.15 and the pIC50 (MCF7) was 4.85. The pIC50 (NCI-H460 [1]) was 4.80 and the pIC50 (Vero) was 4.12.
Compound `CC/C=C\C[C@@H](O)CC/C=C\CCCCCCCc1cc(O)cc(O)c1` has a pIC50 (Trypanosoma cruzi) of 4.66, a pIC50 (Leishmania donovani) of 5.52 and a pIC50 (MCF7) of 4.66. For the same compound, the pIC50 (NCI-H460 [1]) was less than 5.00, the pIC50 (Vero) was 4.52 and the inhibition at 20 µg/mL (NCI-H460 [2]) was less than 50%.
`CCCCC/C=C\C/C=C\CCCCCCCc1cc(OC(C)=O)cc(OC(C)=O)c1` gave a pIC50 (Trypanosoma cruzi) of 3.93 and a pIC50 (Vero) of 3.91.
Compound `CC/C=C\C/C=C\C/C=C\CCCCCCCc1cc(OC(C)=O)cc(OC(C)=O)c1` has a pIC50 (Trypanosoma cruzi) of 3.93 and a pIC50 (Vero) of 3.86.
For `CCCCCC[C@@H](C/C=C\CCCCCCCc1cc(OC(C)=O)cc(OC(C)=O)c1)OC(C)=O`, the pIC50 (Trypanosoma cruzi) was 3.99 and the pIC50 (Vero) was 4.12.
For `CC/C=C\C[C@H](CC/C=C\CCCCCCCc1cc(OC(C)=O)cc(OC(C)=O)c1)OC(C)=O`, the pIC50 (Trypanosoma cruzi) was 3.97 and the pIC50 (Vero) was 4.09.
`CC/C=C\C/C=C\C/C=C\CCCCCCCc1cc(O)cc(O)c1` was tested, and the pIC50 (Trypanosoma cruzi) was 4.60, the pIC50 (Leishmania donovani) was 6.22 and the pIC50 (MCF7) was 5.06. For the same compound, the pIC50 (NCI-H460 [1]) was 5.06 and the pIC50 (Vero) was 3.98.
For `C[C@@H]1[C@H](O)[C@@H](C)/C=C/C=C/C=C/C=C/C=C/C=C/C=C/[C@H](O[C@@H]2O[C@H](C)[C@@H](O)[C@H](N)[C@@H]2O)C[C@@H]2O[C@](O)(C[C@@H](O)C[C@@H](O)[C@H](O)CC[C@@H](O)C[C@@H](O)CC(=O)O[C@H]1C)C[C@H](O)[C@H]2C(=O)O` [AMPHOTERICIN B], the pIC50 (Leishmania donovani) was 7.05.
For `CC1CS(=O)(=O)CCN1/N=C/c1ccc([N+](=O)[O-])o1` (stereo unspecified) [NIFURTIMOX], the pIC50 (Trypanosoma cruzi) was 5.22.
